Test systems include NCI-H23 lung; NCI-H460 lung; NCI-H522 lung; RXF 393 renal; SK-MEL-5 melanoma; SK-OV-3 ovarian; TK-10 renal; UO-31 renal; A498 renal; PC-3 prostate.
Holding throughout (assay): growth of human tumour cells (NCI), 48 h

Several values for one entry are separate records, joined by “and”; a condition that tells them apart may be missing. Equal entries are not always repeated.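 1) Cells in 96-well plates. 2) Compound, 48 h, 5 concentrations. 3) Linear interpolation between surrounding doses. 4) Unreached endpoint = highest concentration. At the GI50, growth is halved. TGI: total growth inhibition.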

TGI and GI50 data for 14 molecules are collected here from PubChem BioAssay (NCI).

Consider `Cc1nc2c(ccc3ncccc32)[nH]1`, for which the TGI with NCI-H23 lung, with NCI-H460 lung, with NCI-H522 lung, with RXF 393 renal, in the experiment with SK-MEL-5 melanoma and with SK-OV-3 ovarian was > 100 µM each time. Also, the TGI in the experiment on TK-10 renal and in the experiment with UO-31 renal was > 100 µM each time.

Regarding `Cc1c(C(=O)C/C(=N/NC(=O)c2ccccc2O)C(=O)Nc2ccccc2C(C)C)[n+](=O)c2ccccc2n1[O-]`, the TGI in the experiment on A498 renal is > 100 µM; with NCI-H23 lung it was 52.8 µM; in the experiment with NCI-H460 lung, > 100 µM; in the experiment with NCI-H522 lung, 65.8 µM; in the experiment with RXF 393 renal, > 100 µM; in the experiment on SK-MEL-5 melanoma, > 100 µM. The TGI with SK-OV-3 ovarian and in the experiment on TK-10 renal was > 100 µM each time.

As for `Cc1ccc(Cl)c2c(N=Nc3ccccc3[N+](=O)[O-])c(O)[nH]c12`, the TGI with A498 renal, in the experiment on NCI-H23 lung, in the experiment on NCI-H460 lung, in the experiment with PC-3 prostate, in the experiment on RXF 393 renal and with SK-OV-3 ovarian was > 100 µM in each case. Besides, the TGI in the experiment with TK-10 renal and with UO-31 renal was > 100 µM in each case.

As for `CCCCCCCCCCCC(=O)OCCOCCOCCOCCOCCOCc1ccccc1`, the TGI in the experiment on A498 renal, in the experiment with NCI-H23 lung, with NCI-H460 lung, in the experiment on NCI-H522 lung, with RXF 393 renal and with SK-MEL-5 melanoma was > 100 µM in each case. Moreover, the TGI in the experiment with SK-OV-3 ovarian, in the experiment with TK-10 renal and with UO-31 renal was > 100 µM each time.

For `CC1(C(=O)O)CCC[C@@]2(C)C1CC[C@@]1(C)c3cocc3CCC21` (some centres not stated), the TGI in the experiment on A498 renal, in the experiment on NCI-H23 lung, with NCI-H460 lung, in the experiment with RXF 393 renal, in the experiment on SK-MEL-5 melanoma and in the experiment with SK-OV-3 ovarian was > 100 µM in each case. In addition, the TGI in the experiment with TK-10 renal and in the experiment with UO-31 renal was > 100 µM throughout.

On to `O=C(CCc1nc(=S)[nH][nH]1)Nc1cc(Cl)c(Cl)cc1Cl`, for which the TGI with A498 renal, with NCI-H23 lung, in the experiment on NCI-H460 lung, with NCI-H522 lung, in the experiment with RXF 393 renal and in the experiment on SK-MEL-5 melanoma was > 100 µM throughout. The TGI in the experiment with SK-OV-3 ovarian, with TK-10 renal and in the experiment with UO-31 renal was > 100 µM in each case.

Take `Cc1ccc(S(=O)(=O)OC[C@@H]2CO2)cc1`: the TGI with A498 renal, in the experiment with NCI-H23 lung, with NCI-H460 lung, in the experiment with RXF 393 renal, in the experiment on SK-MEL-5 melanoma and in the experiment on TK-10 renal was > 100 µM each time. In addition, in the experiment with UO-31 renal, the TGI is > 100 µM.

Consider `O=C(O)CCNCCCNCCC(=O)O`, for which the TGI in the experiment with A498 renal, in the experiment on NCI-H23 lung, with NCI-H460 lung, in the experiment on NCI-H522 lung, in the experiment with RXF 393 renal and in the experiment on SK-MEL-5 melanoma was > 100 µM in each case. Further, the TGI in the experiment with SK-OV-3 ovarian and in the experiment with TK-10 renal was > 100 µM in each case.

As for `CCC[CH2][Sn]([CH2]CCC)([S]c1cccc2cccnc12)[S]c1cccc2cccnc12`, the GI50 with A498 renal was 0.254 µM; in the experiment with NCI-H23 lung it was 0.161 µM; with NCI-H460 lung, 0.151 µM; in the experiment on SK-MEL-5 melanoma it was 0.201 µM; in the experiment on SK-OV-3 ovarian, 0.324 µM; with TK-10 renal, 0.249 µM. The GI50 in the experiment on UO-31 renal was 0.189 µM. Further, the TGI in the experiment on A498 renal amounted to 0.6 µM; in the experiment with NCI-H23 lung, 0.422 µM; in the experiment with NCI-H460 lung, 0.356 µM; in the experiment with SK-MEL-5 melanoma it was 0.534 µM; in the experiment with SK-OV-3 ovarian it was 1.18 µM; with TK-10 renal, 0.552 µM. This molecule also displayed a TGI in the experiment on UO-31 renal of 0.345 µM.

Consider `O=C(O)CCC(NC(=O)c1ccc(Nc2nc3ccccc3nc2-c2cccs2)cc1)C(=O)O` (configuration not stated), for which the TGI with A498 renal, in the experiment with NCI-H23 lung, in the experiment on NCI-H460 lung, with NCI-H522 lung, with RXF 393 renal and in the experiment with SK-MEL-5 melanoma was > 100 µM in each case. The TGI with SK-OV-3 ovarian, with TK-10 renal and in the experiment on UO-31 renal was > 100 µM in each case.

For the molecule `CCOC(=O)CCC1(C(=O)OCC)CCCCC1=O` (configuration not stated), the TGI in the experiment with A498 renal, in the experiment on NCI-H23 lung, with NCI-H460 lung, in the experiment on NCI-H522 lung, in the experiment on RXF 393 renal and in the experiment on SK-MEL-5 melanoma was > 100 µM throughout. The TGI in the experiment with SK-OV-3 ovarian, in the experiment on TK-10 renal and with UO-31 renal was > 100 µM throughout.

As to `CNC(=S)OCCC(C)CCCC(C)C` (configuration not stated), the TGI in the experiment on A498 renal was found to be 30 µM; with NCI-H23 lung it was 36.6 µM; with NCI-H460 lung it was 35.2 µM; in the experiment with RXF 393 renal, 30.3 µM; with SK-MEL-5 melanoma, 31.6 µM; in the experiment with SK-OV-3 ovarian, 41.6 µM. Also, the results for the TGI with TK-10 renal and in the experiment with UO-31 renal were 25.5 µM and 20.7 µM, respectively.

In the case of `CCCC1C(=O)CCc2c(OC)ccc(OC)c21` (configuration not stated), the TGI in the experiment on A498 renal, in the experiment with NCI-H23 lung, with NCI-H460 lung, in the experiment on RXF 393 renal, in the experiment on SK-MEL-5 melanoma and in the experiment on SK-OV-3 ovarian was > 100 µM throughout. The TGI with TK-10 renal and with UO-31 renal was > 100 µM each time.

For the molecule `CCCCCCCCCCCCCC(=O)OC(/C=C/C(C)C)C(O)C(O)C(OC)C(=O)NC1CCCCN(C)C1=O` (configuration not stated), the GI50 in the experiment on A498 renal, in the experiment on RXF 393 renal, with SK-OV-3 ovarian, in the experiment with TK-10 renal and in the experiment on UO-31 renal was > 49 µM each time. Also, the TGI in the experiment with A498 renal was 32.5 µM and > 49 µM; in the experiment on NCI-H23 lung it was 6.48 µM and > 49 µM; in the experiment on NCI-H460 lung it was 5.79 µM and > 49 µM; in the experiment on NCI-H522 lung, 6.67 µM and > 49 µM; in the experiment on RXF 393 renal, 6.22 µM and > 49 µM; in the experiment with SK-MEL-5 melanoma, 5.92 µM and > 49 µM. The TGI in the experiment with SK-OV-3 ovarian is 11.5 µM and > 49 µM; in the experiment on TK-10 renal, 32.5 µM and > 49 µM; in the experiment on UO-31 renal it was 5.25 µM and > 49 µM.
